Experiments:
[1] = test system: PSMA-negative PC-3 cells; test: Cell surface binding and internalization, PC-3 cells; type: cell-based, human
Experimental: Cell surface binding and internalization experiments were performed with ^177Lu-PSMA-617 using PSMA-positive LNCaP cells and PSMA-negative PC-3 cells in order to determine if the uptake of ^177Lu-PSMA-617 was PSMA-specific. For this purpose, cells were seeded in 24-well plates (10^5 cells in 1 mL of the RPMI medium/well), allowing adhesion and growth overnight at 37 °C. After the removal of the supernatant, cells were washed once with PBS prior to the addition of the RPMI medium without supplements, followed by the addition of the radiolabeled ^177Lu-PSMA-617 (in MBq/nmol) to each well. The well plates were incubated at 37 °C for 1, 2, and 4 h, respectively. The cells were washed three times with ice-cold PBS to determine the total uptake of ^177Lu-PSMA-617. The internalized fraction of ^177Lu-PSMA-617 was determined in cells which were washed with ice-cold PBS, then incubated for 10 min with acidic stripping buffer (50 mM glycine, pH 2.8) followed by an additional washing step with ice-cold PBS. Cell samples were lysed by the addition of NaOH (1 N, 1 mL) to each well. The samples of the cell suspensions were measured in a γ-counter (PerkinElmer, Waltham, MA, USA).

[2] = target: T1, PSMA (Homo sapiens, UniProt Q04609); test: Saturation binding assay on intact LNCaP cells; details: 1 h at 4 °C
T1 construct: host or cells: LNCaP human prostate cancer cells
Experimental: The competitive inhibition assay was performed in 10^5 LNCaP cells/well as previously described. The radioligand (^177Lu-PSMA-617) was added as a 0.75 nM solution to 10 different concentrations of non-labeled, ^natLu-labeled PSMA-617 (from 0.01 to 10,000 nM). After 1 h of incubation at 4 °C, the cells were washed with ice-cold PBS, and the cell-bound radioactivity was measured in a gamma counter (PerkinElmer, Waltham, MA, USA). The IC50 (half-maximal inhibitory concentration) value was determined using GraphPad Prism version 5.0 (Graph Pad Software, San Diego, CA, USA). Determination of the dissociation constants (Kd values) was performed by saturation binding assays using LNCaP cells. A total of 10^5 cells were seeded in 96-well plates (cells in 100 µL of the RPMI medium/well), allowing adhesion and growth overnight at 37 °C and 5% CO2. […] The Kd values were determined by plotting specific binding (total binding minus unspecific binding) against the molar concentration of the added radioligands followed by nonlinear regression analysis using the GraphPad Prism 5 software. The binding affinity (Ki) of ^177/natLu-PSMA-617 was calculated using the following formula as described previously: Ki = IC50/[1 + ([radioligand]/Kd)].

[3] = Radiochemical stability in human serum (iTLC); type: in vitro ADME
Experimental: A precursor amount of 50 nmol was labeled with Lutetium-177, achieving a radiochemical yield of over 99% and a molar activity of 25.5 GBq/μmol within 15 min at 95 °C. The radiochemical purity of ^177Lu-PSMA-617 (Rt = 7.47 min) exceeded 98%, as determined by radio-HPLC and iTLC analyses (Figure 1). To assess radiolytic stability, ^177Lu-PSMA-617 was incubated in human serum at 4, 25, and 37 °C for 1, 24, 48, and 72 h. […] However, after 72 h, less than 5% and 4% of free ^177Lu was detected at 4 °C and 25 °C, respectively. […] These findings are consistent with other studies. […] The ability to maintain radiolabeling over an extended period reinforces its viability for targeted radiopharmaceutical therapy and molecular imaging in oncology.
Radiolabeling was conducted as previously described. A total of 1 GBq of non-carrier added lutetium-177 (Isotopia Molecular Imaging, Petach Tikva, Israel) was mixed with 100 μL of a sodium acetate solution (0.4 M, pH 5.5), 1.25 μL of an ascorbic acid solution (20% w/w), and 5 μL of a PSMA-617 solution (10 mM, Ontores Biotechnology Co., Ltd., Hangzhou, China). The mixture solution was subjected to heating at a temperature of 95 °C while being placed on a shaker for 15 min. The labeling efficiency was measured using instant thin-layer chromatography (iTLC) on the glass microfiber chromatography paper impregnated with a silica gel (Agilent Technologies, Santa Clara, CA, USA), where 100 mM EDTA in 100 mM ammonium acetate acts as a mobile phase as described previously. The iTLC sheets were measured using a radioactive scanner (AR-2000 radio-TLC Imaging Scanner, Bioscan, Evreux, France). The labeling rate of >90% was acceptable as performed in the in vitro and in vivo studies. Radiochemical purity was also analyzed by high-performance liquid chromatography (HPLC) with a UV detector (220 nm) and a radio detector using a Zorbax SB-C18 column (Agilent Technologies, Santa Clara, CA, USA). The flow rate was 0.8 mL/min with the gradient mobile phase going from the 80% A buffer (0.1% TFA in water) and 20% B buffer (0.1% TFA in acetonitrile) to the 40% B buffer within 20 min. A sterile 0.9% sodium chloride solution was added before injections in mice. The radiochemical stability of ^177Lu-PSMA-617 in human serum up to 96 h at 4, 25, and 37 °C was tested by iTLC.

T1 sequence (Q04609 whole entry): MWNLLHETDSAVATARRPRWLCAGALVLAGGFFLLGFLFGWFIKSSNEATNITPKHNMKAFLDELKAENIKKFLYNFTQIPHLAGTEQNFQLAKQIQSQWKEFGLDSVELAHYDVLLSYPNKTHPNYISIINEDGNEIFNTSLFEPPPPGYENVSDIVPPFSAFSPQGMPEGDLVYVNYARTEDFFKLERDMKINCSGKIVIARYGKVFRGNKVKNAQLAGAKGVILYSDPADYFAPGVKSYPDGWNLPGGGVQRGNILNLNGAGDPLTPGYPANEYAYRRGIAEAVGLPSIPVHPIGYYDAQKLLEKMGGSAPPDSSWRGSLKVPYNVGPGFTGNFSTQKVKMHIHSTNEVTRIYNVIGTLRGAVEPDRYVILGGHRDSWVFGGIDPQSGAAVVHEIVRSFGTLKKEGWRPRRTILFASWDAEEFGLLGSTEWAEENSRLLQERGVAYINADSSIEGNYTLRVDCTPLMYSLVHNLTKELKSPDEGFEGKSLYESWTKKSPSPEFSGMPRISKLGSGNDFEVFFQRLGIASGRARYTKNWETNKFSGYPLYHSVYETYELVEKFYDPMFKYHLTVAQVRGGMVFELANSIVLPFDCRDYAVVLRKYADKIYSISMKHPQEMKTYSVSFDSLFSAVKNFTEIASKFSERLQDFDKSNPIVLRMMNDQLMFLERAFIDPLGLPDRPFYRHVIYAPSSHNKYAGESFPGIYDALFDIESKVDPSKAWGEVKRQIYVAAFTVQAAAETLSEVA

O=C([O-])CN1CCN(CC(=O)[O-])CCN(CC(=O)NCC2CCC(C(=O)N[C@@H](Cc3ccc4ccccc4c3)C(=O)NCCCC[C@H](NC(=O)N[C@@H](CCC(=O)O)C(=O)O)C(=O)O)CC2)CCN(CC(=O)[O-])CC1.[177Lu+3] (stereo partly shown) [^177Lu-PSMA-617]
internalization [1]: < 0.1 % IA/10^6 cells
surface binding [1]: ≤ 1.7 % IA/10^6 cells
Kd [2]: 4.36 ± 0.664 nM
free activity ([3]; human serum, 4 °C, after 2 h): 1.2%
free activity ([3]; human serum, 25 °C, after 2 h): less than 1.1%
free activity ([3]; human serum, after 48 h, at 4, 25 and 37 °C): no detectable free activity
free 177Lu ([3]; human serum, after 72 h, 4 °C): less than 5%
free 177Lu ([3]; human serum, after 72 h, 25 °C): < 4%
release of free activity ([3]; human serum, up to 72 h at 37 °C): without any release of free activity
free 177Lu ([3]; over a 72 h observation period, 37 °C): less than 5%
